In ChEMBL document CHEMBL1135699, “Designing non-peptide peptidomimetics in the 21st century: inhibitors targeting conformational ensembles” (J Med Chem, 2002):
Non-standard residues stand in square brackets, D forms with d. Residues, ends and D or L forms follow the SMILES beside them. *: point of attachment. Sta = CC(C)C[C@H](N)[C@@H](O)CC(=O)O; NHIsopentyl = CC(C)CCN*; X1 = CC(C)CCOC(=O)*

Legend:
Rhizopuspepsin = molecular target: T1, Rhizopuspepsin (Rhizopus microsporus var. chinensis, UniProt P06026); assay: Inhibitory concentration against Rhizopus chinensis pepsin; type: functional
T1 sequence (P06026 whole entry): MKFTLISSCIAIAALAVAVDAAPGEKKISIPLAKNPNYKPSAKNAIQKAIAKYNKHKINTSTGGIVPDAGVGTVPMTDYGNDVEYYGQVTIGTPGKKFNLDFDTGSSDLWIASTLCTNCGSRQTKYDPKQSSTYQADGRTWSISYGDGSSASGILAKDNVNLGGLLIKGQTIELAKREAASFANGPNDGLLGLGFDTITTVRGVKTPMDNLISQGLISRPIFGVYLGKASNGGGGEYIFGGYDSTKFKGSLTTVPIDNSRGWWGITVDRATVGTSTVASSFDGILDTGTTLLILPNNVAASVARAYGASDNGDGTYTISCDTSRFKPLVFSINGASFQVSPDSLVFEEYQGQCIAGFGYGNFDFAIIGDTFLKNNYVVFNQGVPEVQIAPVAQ

Pepsin A [1] = molecular target: Pepsin A (Homo sapiens, UniProt P0DJD9); assay: Inhibition of pepsin
Pepsin A [2] = molecular target: Pepsin A (Sus scrofa, UniProt P00791); assay: Inhibitory concentration against porcine pepsin
Sequence of Pepsin A (Sus scrofa, UniProt P00791) (P00791 whole entry): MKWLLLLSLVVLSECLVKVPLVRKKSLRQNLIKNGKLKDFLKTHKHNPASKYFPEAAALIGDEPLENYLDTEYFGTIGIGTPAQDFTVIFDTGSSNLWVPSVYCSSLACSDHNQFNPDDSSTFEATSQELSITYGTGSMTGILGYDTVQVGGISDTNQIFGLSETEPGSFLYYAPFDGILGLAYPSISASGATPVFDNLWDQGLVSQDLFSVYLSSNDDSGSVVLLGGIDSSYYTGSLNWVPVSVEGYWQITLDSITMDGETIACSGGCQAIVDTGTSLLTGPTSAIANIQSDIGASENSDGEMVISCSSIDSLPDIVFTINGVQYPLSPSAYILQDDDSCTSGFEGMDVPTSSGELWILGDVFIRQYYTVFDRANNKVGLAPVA

Sequence of Pepsin A (Homo sapiens, UniProt P0DJD9) (P0DJD9 whole entry): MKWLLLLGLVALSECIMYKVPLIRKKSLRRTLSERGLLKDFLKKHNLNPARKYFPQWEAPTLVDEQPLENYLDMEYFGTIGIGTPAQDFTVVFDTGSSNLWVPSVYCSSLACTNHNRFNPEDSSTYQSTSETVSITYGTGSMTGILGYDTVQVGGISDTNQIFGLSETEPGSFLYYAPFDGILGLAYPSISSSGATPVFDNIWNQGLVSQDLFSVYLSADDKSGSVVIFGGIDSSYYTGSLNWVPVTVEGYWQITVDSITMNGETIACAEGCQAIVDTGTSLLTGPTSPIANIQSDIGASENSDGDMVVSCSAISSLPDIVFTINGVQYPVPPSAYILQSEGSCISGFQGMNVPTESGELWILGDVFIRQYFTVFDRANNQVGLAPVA

SMILES	Ki (Pepsin A [1]) [nM]	also measured
O=C(COc1ccc([C@H]2CCNC[C@@H]2OCc2ccc(Br)cc2)cc1)c1ccc2ccccc2c1		IC50 (Rhizopuspepsin): 2000 nM
CC(C)CCNC(=O)[C@H](C)NC(=O)C[C@](C)(O)[C@H](CC(C)C)NC(=O)[C@@H](NC(=O)[C@@H](NC(=O)OCCC(C)C)C(C)C)C(C)C	1200	
CC(C)CCNC(=O)[C@H](C)NC(=O)C[C@@](C)(O)[C@H](CC(C)C)NC(=O)[C@@H](NC(=O)[C@@H](NC(=O)OCCC(C)C)C(C)C)C(C)C	1.5	
Brc1ccc(CO[C@H]2CNCC[C@@H]2c2ccccc2)cc1		IC50 (Pepsin A [2]): 200 nM
CC(C)CCNC(=O)[C@H](C)NC(=O)C[C@H](O)[C@H](CC(C)C)NC(=O)[C@@H](NC(=O)[C@@H](NC(=O)OCCC(C)C)C(C)C)C(C)C (X1-VV[Sta]A-NHIsopentyl)	0.1	
